Source: patent US10392368B2, “Pyrazolo and triazolo bicyclic compounds as JAK kinase inhibitors” (THERAVANCE BIOPHARMA R&D IP, LLC, priority 2017, dated 2019)

Key:
JAK2 = molecular target: T1, JAK2 (Homo sapiens, UniProt O60674); assay: Biochemical JAK2 kinase assay (LanthaScreen); conditions: for Ki: read-out: JAK 2 (pKi) (converted)
T1 construct: GST; purchased Life Technologies
Summary of the method: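 pKi values derive from pIC50 via Cheng-Prusoff, with IC50 from a 4-parameter fit of percent-inhibition TR-FRET data using Tb-anti-pSTAT1 (pTyr701) detection. Compound, GST-JAK2 and GFP-STAT1 substrate were pre-incubated 1 h, then ATP started a 1 h ambient reaction (HEPES pH 7.5, 10 mM MgCl2, 1% DMSO).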

JAK1 = molecular target: T2, JAK1 (Homo sapiens, UniProt P23458); assay: Biochemical JAK1 kinase assay (LanthaScreen); conditions: for Ki: read-out: JAK 1 (pKi) (converted)
T2 construct: GST; purchased Life Technologies
T2 sequence (P23458 whole entry): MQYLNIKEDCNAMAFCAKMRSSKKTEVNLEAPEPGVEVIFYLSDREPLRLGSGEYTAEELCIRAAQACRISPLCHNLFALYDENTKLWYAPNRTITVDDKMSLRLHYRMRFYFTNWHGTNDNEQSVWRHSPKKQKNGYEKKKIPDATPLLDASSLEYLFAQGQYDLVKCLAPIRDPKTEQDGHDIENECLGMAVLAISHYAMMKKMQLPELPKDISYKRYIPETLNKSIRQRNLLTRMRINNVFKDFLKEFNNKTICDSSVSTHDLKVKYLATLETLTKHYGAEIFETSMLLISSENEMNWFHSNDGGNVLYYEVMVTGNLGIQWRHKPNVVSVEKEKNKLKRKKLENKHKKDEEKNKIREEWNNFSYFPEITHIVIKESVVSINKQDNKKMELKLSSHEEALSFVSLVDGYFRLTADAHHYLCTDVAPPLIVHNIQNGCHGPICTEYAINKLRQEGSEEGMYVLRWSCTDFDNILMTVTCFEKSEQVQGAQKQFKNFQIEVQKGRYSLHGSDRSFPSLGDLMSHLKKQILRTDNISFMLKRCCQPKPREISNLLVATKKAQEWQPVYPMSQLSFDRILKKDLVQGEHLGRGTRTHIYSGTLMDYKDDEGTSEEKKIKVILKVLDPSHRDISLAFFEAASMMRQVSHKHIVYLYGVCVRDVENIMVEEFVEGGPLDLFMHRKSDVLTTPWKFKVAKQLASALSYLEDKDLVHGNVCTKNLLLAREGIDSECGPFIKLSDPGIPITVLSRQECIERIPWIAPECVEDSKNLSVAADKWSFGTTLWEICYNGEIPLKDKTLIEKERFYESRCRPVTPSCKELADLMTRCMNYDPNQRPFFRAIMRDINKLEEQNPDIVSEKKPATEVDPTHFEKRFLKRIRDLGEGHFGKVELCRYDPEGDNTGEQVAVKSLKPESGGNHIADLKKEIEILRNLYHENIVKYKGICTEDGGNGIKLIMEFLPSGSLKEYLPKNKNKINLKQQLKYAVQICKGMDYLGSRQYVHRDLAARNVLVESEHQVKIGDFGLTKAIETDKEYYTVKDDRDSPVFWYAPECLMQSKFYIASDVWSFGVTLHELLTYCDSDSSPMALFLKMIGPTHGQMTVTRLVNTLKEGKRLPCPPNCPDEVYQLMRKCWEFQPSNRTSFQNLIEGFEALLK
Summary of the method: (§1)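 GST-tagged JAK enzyme and GFP-STAT1 peptide preincubated with compound 1 h, then ATP added; 1 h kinase reaction at ambient temperature, pH 7.5 HEPES/MgCl2 buffer, 1% DMSO. Tb-anti-pSTAT1 (pTyr701) TR-FRET, 520/495 nm ratio; IC50 from 4-parameter fit, converted to pKi via Cheng-Prusoff.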

JAK3 = molecular target: T3, JAK3 (Homo sapiens, UniProt P52333); assay: Biochemical JAK3 kinase assay (LanthaScreen); set-up: GST; purchased Life Technologies; conditions: for Ki: read-out: JAK 3 (pKi) (converted)
T3 sequence (P52333 1-1124): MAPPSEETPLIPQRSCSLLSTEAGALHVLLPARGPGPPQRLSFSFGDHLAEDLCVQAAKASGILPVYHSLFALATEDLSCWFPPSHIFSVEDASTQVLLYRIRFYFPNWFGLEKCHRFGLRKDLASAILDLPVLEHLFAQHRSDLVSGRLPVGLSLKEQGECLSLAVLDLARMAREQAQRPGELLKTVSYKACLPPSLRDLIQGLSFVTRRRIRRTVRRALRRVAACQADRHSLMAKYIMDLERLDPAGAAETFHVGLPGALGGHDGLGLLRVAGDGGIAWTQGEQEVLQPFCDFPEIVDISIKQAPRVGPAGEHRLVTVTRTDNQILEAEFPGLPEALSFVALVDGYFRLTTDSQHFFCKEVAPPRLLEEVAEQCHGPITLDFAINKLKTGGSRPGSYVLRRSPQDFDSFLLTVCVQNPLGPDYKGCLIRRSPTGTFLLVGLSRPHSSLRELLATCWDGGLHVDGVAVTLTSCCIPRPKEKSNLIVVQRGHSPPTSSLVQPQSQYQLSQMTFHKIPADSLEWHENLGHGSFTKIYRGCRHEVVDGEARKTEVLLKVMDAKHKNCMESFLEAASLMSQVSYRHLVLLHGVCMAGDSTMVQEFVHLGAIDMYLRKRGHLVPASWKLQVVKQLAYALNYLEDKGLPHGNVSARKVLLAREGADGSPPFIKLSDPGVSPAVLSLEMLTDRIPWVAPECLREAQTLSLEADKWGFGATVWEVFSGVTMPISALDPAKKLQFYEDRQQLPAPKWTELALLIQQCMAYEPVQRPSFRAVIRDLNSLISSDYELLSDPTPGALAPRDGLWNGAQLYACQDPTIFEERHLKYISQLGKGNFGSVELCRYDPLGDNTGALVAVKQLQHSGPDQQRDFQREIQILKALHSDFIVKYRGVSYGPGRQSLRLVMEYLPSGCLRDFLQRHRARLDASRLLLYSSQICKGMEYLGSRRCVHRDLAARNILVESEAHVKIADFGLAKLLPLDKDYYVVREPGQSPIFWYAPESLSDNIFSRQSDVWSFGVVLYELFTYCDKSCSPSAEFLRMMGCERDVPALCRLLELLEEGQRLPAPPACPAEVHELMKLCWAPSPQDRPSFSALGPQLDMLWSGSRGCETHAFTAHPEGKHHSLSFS
Summary of the method: as §1

[1] = test system: IL-2 stimulated pSTAT5 in Tall-1 T cells; assay: Cellular JAK3 potency assay: inhibition of IL-2 stimulated pSTAT5 in Tall-1 T cells; type: cell-based, human; conditions: for IC50: Homo sapiens, TALL-1, IL-2 stimulated pSTAT5 in Tall-1 T cells, read-out: Tall-1 (pIC50) (converted)
Summary of the method: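 Tall-1 human T cells were preincubated with compound for 1 h at 37° C, then stimulated with IL-2 (300 ng/ml final) for 30 min. STAT5 phosphorylation in lysates was read by AlphaLisa bead emission, and IC50 from inhibition curves is given as pIC50 (mean±SD).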

Tyk2 = molecular target: T4, Tyk2 (Homo sapiens, UniProt P29597); assay: Biochemical Tyk2 kinase assay (LanthaScreen); conditions: for Ki: read-out: Tyk 2 (pKi) (converted)
T4 construct: GST; purchased Life Technologies
T4 sequence (P29597 whole entry): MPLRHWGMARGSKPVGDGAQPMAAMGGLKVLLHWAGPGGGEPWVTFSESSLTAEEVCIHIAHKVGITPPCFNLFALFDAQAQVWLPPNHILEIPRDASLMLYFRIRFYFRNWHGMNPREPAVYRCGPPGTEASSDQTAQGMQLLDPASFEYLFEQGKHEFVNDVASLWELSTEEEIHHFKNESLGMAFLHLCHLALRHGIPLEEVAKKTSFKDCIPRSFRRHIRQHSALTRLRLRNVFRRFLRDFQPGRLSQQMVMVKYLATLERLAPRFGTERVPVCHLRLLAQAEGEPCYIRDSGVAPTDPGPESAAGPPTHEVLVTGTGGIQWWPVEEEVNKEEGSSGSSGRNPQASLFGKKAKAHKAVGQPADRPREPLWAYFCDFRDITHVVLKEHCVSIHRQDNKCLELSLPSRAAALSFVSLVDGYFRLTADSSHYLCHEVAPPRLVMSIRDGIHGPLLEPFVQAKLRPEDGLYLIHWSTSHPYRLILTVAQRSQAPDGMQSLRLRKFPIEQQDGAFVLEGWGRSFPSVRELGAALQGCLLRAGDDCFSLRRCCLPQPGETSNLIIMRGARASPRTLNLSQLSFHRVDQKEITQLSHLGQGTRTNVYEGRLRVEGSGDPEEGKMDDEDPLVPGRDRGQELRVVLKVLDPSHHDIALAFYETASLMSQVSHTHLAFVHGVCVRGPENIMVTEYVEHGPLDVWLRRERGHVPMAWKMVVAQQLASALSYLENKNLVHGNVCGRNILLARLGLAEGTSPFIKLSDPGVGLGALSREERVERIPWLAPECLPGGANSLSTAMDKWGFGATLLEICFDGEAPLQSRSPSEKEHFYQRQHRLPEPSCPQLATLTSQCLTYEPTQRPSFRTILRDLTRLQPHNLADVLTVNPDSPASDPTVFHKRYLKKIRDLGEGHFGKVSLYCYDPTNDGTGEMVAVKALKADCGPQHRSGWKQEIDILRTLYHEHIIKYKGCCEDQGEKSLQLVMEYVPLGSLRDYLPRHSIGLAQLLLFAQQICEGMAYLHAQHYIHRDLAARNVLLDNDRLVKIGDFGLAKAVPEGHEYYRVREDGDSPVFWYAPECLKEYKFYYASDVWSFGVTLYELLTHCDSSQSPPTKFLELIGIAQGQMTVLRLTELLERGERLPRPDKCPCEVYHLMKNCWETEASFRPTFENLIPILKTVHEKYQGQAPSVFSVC
Summary of the method: as §1

[2] = selectivity JAK3 over JAK1, difference of pKi
[3] = IL-2 stimulated pSTAT5, Tall-1 T cells
[4] = selectivity: difference of pKi JAK3 and pKi JAK1
[5] = IL-2 stimulated pSTAT5 in Tall-1 T cells

T1 sequence (O60674 whole entry): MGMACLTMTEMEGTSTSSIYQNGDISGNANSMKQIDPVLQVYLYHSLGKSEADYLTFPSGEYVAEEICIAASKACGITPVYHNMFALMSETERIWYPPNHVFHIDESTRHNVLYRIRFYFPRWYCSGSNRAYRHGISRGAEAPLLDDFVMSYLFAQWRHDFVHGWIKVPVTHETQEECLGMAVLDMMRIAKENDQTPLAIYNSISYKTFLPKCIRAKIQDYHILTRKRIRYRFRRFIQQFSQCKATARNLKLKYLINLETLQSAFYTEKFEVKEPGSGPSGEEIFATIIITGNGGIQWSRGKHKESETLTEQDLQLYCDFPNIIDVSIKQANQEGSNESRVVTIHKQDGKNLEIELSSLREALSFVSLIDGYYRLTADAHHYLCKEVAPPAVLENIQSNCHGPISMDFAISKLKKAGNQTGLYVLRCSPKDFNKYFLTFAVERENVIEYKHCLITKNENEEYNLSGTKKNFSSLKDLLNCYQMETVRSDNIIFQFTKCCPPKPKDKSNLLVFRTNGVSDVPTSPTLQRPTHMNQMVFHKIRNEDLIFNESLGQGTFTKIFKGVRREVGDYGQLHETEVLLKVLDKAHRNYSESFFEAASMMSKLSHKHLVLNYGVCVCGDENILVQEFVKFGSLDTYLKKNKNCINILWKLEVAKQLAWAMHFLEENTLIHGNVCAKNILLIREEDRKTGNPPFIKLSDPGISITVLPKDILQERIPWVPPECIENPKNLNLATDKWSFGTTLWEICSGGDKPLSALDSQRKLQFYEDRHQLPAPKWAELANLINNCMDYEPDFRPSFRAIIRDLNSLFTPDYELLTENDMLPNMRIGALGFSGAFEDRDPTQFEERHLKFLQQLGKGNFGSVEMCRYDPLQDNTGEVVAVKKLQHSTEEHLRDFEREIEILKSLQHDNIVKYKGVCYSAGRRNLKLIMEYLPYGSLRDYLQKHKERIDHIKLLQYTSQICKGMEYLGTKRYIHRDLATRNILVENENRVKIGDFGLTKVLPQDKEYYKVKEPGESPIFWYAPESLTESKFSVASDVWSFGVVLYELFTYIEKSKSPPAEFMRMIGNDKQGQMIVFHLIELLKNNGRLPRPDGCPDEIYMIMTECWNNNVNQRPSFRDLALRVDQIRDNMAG

Row | SMILES | JAK 2 (pKi) (JAK2) | JAK 1 (pKi) (JAK1) | JAK 3 (pKi) (JAK3) | JAK3 (pKi)-JAK1 (pKi) (JAK3; [2]) | Tall-1 (pIC50) [1, 3] | Tyk 2 (pKi) (Tyk2) | Ki (JAK2) | Ki (JAK1) | Ki (JAK3) | JAK3 (pKi)-JAK1 (pKi) (JAK3; [4]) | IC50 [1] | Ki (Tyk2) | Tall-1 (pIC50) [1, 5]
1 | C=CC(=O)N1CCC(C)(Oc2cc(-c3ccc(O)cc3)cc3[nH]ncc23)C1 (stereo not drawn) [Compound 13-15] | D (a pKi value between 7 and 8 (Ki between 100 nM and 10 nM)) | E (a pKi value of 7 or below (Ki of 100 nM or above)) | B (a pKi value between 9 and 10 (Ki between 1 nM and 0.1 nM)) | A (a value of 3 or above) | B (a pIC50 value between 6.7 (included) and 7.5 (IC50 between 200 nM and 32 nM)) | E (a pKi value of 7 or below (Ki of 100 nM or above)) | – | – | – | – | – | – | –
2 | CN(C)C/C=C/C(=O)N1CC(F)(COc2nc(-c3ccc(O)cc3)nc3[nH]ncc23)C1 [Compound 3-88] | – | – | – | – | – | – | > 100 nM | > 100 nM | 0.1 to 1 nM | A (a value of 3 or above) | 31.6 to 200 nM | > 100 nM | –
3 | C=CC(=O)N1CCC(C)(Nc2nc(-c3ccc(O)cc3)cc3[nH]ncc23)CC1 [Compound 7-13] | D (a pKi value between 7 and 8 (Ki between 100 nM and 10 nM)) | E (a pKi value of 7 or below (Ki of 100 nM or above)) | A (a pKi value≥10 (Ki≤0.1 nM)) | A (a value of 3 or above) | A (a pIC50 value≥7.5 (IC50≤32 nM)) | E (a pKi value of 7 or below (Ki of 100 nM or above)) | – | – | – | – | – | – | –
4 | C=CC(=O)N1CC2(CC(Oc3nc(-c4ccc(O)cc4)cc4[nH]ncc34)C2)C1 [Compound 15-7] | D (a pKi value between 7 and 8 (Ki between 100 nM and 10 nM)) | E (a pKi value of 7 or below (Ki of 100 nM or above)) | B (a pKi value between 9 and 10 (Ki between 1 nM and 0.1 nM)) | B (a value of 2.3 to 3) | A (a pIC50 value≥7.5 (IC50≤32 nM)) | E (a pKi value of 7 or below (Ki of 100 nM or above)) | – | – | – | – | – | – | –
5 | C=CC(=O)N1CC[C@H](COc2nc(-c3ccc(O)cc3)cc3[nH]ncc23)C1 [Compound 2-8] | D (a pKi value between 7 and 8 (Ki between 100 nM and 10 nM)) | E (a pKi value of 7 or below (Ki of 100 nM or above)) | B (a pKi value between 9 and 10 (Ki between 1 nM and 0.1 nM)) | – | – | E (a pKi value of 7 or below (Ki of 100 nM or above)) | – | – | – | A (a value of 3 or above) | – | – | B (a pIC50 value between 6.7 (included) and 7.5 (IC50 between 200 nM and 32 nM))
6 | CN(C)C/C=C/C(=O)N1CC(COc2nc(-c3ccc(O)c(F)c3)cc3[nH]ncc23)C1 [Compound 3-36] | – | – | – | – | – | – | > 100 nM | > 100 nM | < 0.1 nM | A (a value of 3 or above) | 31.6 to 200 nM | > 100 nM | –
7 | C=CC(=O)N1CC(CSc2cc(-c3ccc(O)c(F)c3)cc3[nH]ncc23)C1 [Compound 13-7] | D (a pKi value between 7 and 8 (Ki between 100 nM and 10 nM)) | E (a pKi value of 7 or below (Ki of 100 nM or above)) | A (a pKi value≥10 (Ki≤0.1 nM)) | A (a value of 3 or above) | B (a pIC50 value between 6.7 (included) and 7.5 (IC50 between 200 nM and 32 nM)) | E (a pKi value of 7 or below (Ki of 100 nM or above)) | – | – | – | – | – | – | –
8 | CN(C)CC=CC(=O)N1CCCC(Oc2cc(-c3ccc(O)c(F)c3)cc3[nH]ncc23)C1 (stereo not drawn) [Compound 8-4] | D (a pKi value between 7 and 8 (Ki between 100 nM and 10 nM)) | E (a pKi value of 7 or below (Ki of 100 nM or above)) | B (a pKi value between 9 and 10 (Ki between 1 nM and 0.1 nM)) | B (a value of 2.3 to 3) | B (a pIC50 value between 6.7 (included) and 7.5 (IC50 between 200 nM and 32 nM)) | E (a pKi value of 7 or below (Ki of 100 nM or above)) | – | – | – | – | – | – | –
9 | CCC1(COc2nc(-c3ccc(O)cc3)cc3[nH]ncc23)CN(C(=O)/C=C/CN(C)C)C1 [Compound 3-61] | D (a pKi value between 7 and 8 (Ki between 100 nM and 10 nM)) | E (a pKi value of 7 or below (Ki of 100 nM or above)) | A (a pKi value≥10 (Ki≤0.1 nM)) | – | – | E (a pKi value of 7 or below (Ki of 100 nM or above)) | – | – | – | A (a value of 3 or above) | – | – | A (a pIC50 value≥7.5 (IC50≤32 nM))
10 | C=CC(=O)N1CCCC(Oc2cc(-c3ccc(O)cc3)cc3[nH]ncc23)C1 (stereo not drawn) [Compound 8-1] | D (a pKi value between 7 and 8 (Ki between 100 nM and 10 nM)) | E (a pKi value of 7 or below (Ki of 100 nM or above)) | B (a pKi value between 9 and 10 (Ki between 1 nM and 0.1 nM)) | B (a value of 2.3 to 3) | A (a pIC50 value≥7.5 (IC50≤32 nM)) | E (a pKi value of 7 or below (Ki of 100 nM or above)) | – | – | – | – | – | – | –
11 | C=CC(=O)N1CC(F)(COc2cc(-c3ccc(O)cc3)nc3[nH]ncc23)C1 [Compound 3-46] | – | – | – | – | – | – | > 100 nM | > 100 nM | < 0.1 nM | A (a value of 3 or above) | < 31.6 nM | > 100 nM | –
12 | COC(CN(C)C/C=C/C(=O)N1CC(COc2cc(-c3ccc(O)cc3)cc3[nH]ncc23)C1)OC [Compound 3-121] | – | – | – | – | – | – | 10 to 100 nM | > 100 nM | 0.1 to 1 nM | A (a value of 3 or above) | 31.6 to 200 nM | > 100 nM | –
13 | CN(C)C/C=C/C(=O)N1CC(C#N)(COc2cc(-c3ccc(O)c(Cl)c3)cc3[nH]ncc23)C1 [Compound 3-21] | – | – | – | – | – | – | > 100 nM | > 100 nM | 0.1 to 1 nM | A (a value of 3 or above) | < 31.6 nM | > 100 nM | –
